Assay results reported in the NIST ThermoML archive (doi:10.1021/je300938w).
Numbers after ± are expanded uncertainties.

Legend:
[1] = refractive index (Na D-line) (dimensionless); details: 101.33 kPa, Liquid, Standard Abbe refractometry
[2] = 101.33 kPa, Liquid; for viscosity: Concentric cylinders viscometry; for mass density: Vibrating tube method

Structure (SMILES)	refractive index ([1]; 298.15 K)	viscosity ([2]; 298.15 K)	mass density ([2]; 298.15 K)	refractive index ([1]; 323.15 K)	viscosity ([2]; 323.15 K)	mass density ([2]; 323.15 K)	also measured
CC(O)CN (centres undefined) [1-amino-2-propanol]	1.4459 ± 0.00082	23.26 ± 0.41 mPa·s	956.644 ± 1 kg/m3				
CC(O)CNCC(C)O (centres undefined) [N-(2-hydroxypropyl)-2-hydroxy-1-propanamine]				1.45139 ± 0.00068	123.21 ± 4.4 mPa·s	984.835 ± 1.1 kg/m3	refractive index ([1]; 313.15 K): 1.45517 ± 0.00068; viscosity ([2]; 313.15 K): 308.54 ± 11 mPa·s; mass density ([2]; 313.15 K): 992.46 ± 1.1 kg/m3
CC(O)CN(CC(C)O)CC(C)O (centres undefined) [triisopropanolamine]				1.45233 ± 0.0012	132.3 ± 5.5 mPa·s	990.616 ± 6.8 kg/m3	

Further lines, with some results ahead:

refractive index ([1]; 298.15 K)	viscosity ([2]; 298.15 K)	mass density ([2]; 298.15 K)	Structure (SMILES)	refractive index ([1]; 323.15 K)	viscosity ([2]; 323.15 K)	mass density ([2]; 323.15 K)	also measured
1.4764 ± 0.00073	566.57 ± 46 mPa·s	1093.22 ± 0.17 kg/m3	OCCNCCO [diethanolamine]				
1.33249 ± 0.00042	0.9123 ± 0.0097 mPa·s		O [water]				refractive index ([1]; 293.15 K): 1.33304 ± 0.00042; viscosity ([2]; 293.15 K): 1.019 ± 0.01 mPa·s
